# What was measured:
# WT human PAR4 (hPAR4) = target: T1, WT human PAR4 (hPAR4) (Homo sapiens, UniProt Q96RI0); assay: PAR4 calcium flux assay in HEK293T/17 cells expressing WT PAR4; assay type: cell-based; conditions: CatG 2.5 μM; 100 nM vorapaxar
# T1 construct: Flag; expressed in transfected cells; host or cells: HEK293T/17 (ATCC CRL-11268)
# T1 sequence (Q96RI0 18-385): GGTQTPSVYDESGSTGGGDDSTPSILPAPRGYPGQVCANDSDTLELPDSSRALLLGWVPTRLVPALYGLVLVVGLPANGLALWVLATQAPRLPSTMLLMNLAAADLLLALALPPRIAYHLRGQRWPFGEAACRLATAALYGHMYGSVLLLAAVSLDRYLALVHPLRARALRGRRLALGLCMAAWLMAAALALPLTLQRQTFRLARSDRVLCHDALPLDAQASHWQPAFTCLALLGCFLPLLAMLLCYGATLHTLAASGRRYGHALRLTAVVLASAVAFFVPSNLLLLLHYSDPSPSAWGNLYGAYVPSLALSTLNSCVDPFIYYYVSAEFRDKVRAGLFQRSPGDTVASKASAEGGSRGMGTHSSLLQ
# Description: PAR4 calcium flux assays. PAR4-dependent calcium flux was measured using Fura2-QBT in platelets and HEK293T/17 cells with wild-type (WT) and mutant PAR4 (Tourdot et al., Arterioscler Thromb Vasc Biol. 2014; 34(12):2644-2650).
# PAR4 mutant calcium flux assays. Using Quikchange Lightning Site-Directed mutagenesis (Agilent) per manufacturing instructions, pCMV-Flag-PAR4-S66E, pCMV-Flag-PAR4-S67E, and pCMV-Flag-PAR4-R68E were generated from mutation of pCMV-Flag-PAR4 and confirmed by sequencing (University of Utah DNA Sequencing Core). Prior to transfection, HEK293T/17 cells (ATCC CRL-11268) were seeded at 4.5×10^4/mL. The following day, cells were transfected with the plasmid of interest using Lipofectamine 2000 (Invitrogen, Carlsbad, CA, USA). Twenty-four hours after transfection, media was removed and replaced with Optimem w/Glutamax (Gibco, Carlsbad, CA, USA) containing vorapaxar (100 nM) (Cayman Chemical, Ann Arbor, MI, USA) and Fura2-QBT (Molecular Devices). Following incubation for 1 hour at 37° C., plate was placed in the Flexstation 3 (Molecular Devices) where agonists, Tyrode's Buffer, cathepsin G (2.5 μM), or α-thrombin (1.5 U/mL), were injected onto cells and calcium mobilization was monitored and recorded.
# washed platelets [1] = assay: Platelet activation by flow cytometry (PAC-1 binding, P-selectin); assay type: cell-based, human
# Description: Platelet isolation, aggregation, and activation. Human washed platelets were prepared and resuspended in Tyrode's Buffer at 2×10^8/mL as described (Edelstein et al., Nat Med. 2013; 19(12):1609-1616). For human and dog platelet comparisons, platelets were prepared using a modified human platelet protocol with final concentrations of […] (Cayman Chemical, Ann Arbor, MI, USA) used during centrifugation steps. Centrifugations after Tyrode's washes was decreased to 1,250×g as described in Cremer et al., PLOS One. 2019; 14(11): e0224891. Platelet aggregation was measured under stirring conditions at 37° C. using a PAP-8E aggregometer after treatment with the following agonists: arachidonic acid (Bio/Data Corporation, Horsham, PA, USA), cathepsin G, elastase, proteinase 3 (Athens Research Group), α-thrombin (Sigma, St. Louis, MO, USA), PAR-1 peptide (SFLLRN) (GL Biochem, China). P-selectin and PAC-1 were measured as previously described (Yee et al., J Thromb Haemost. 2006; 4(9):2043-2050; Tourdot et al., Arterioscler Thromb Vasc Biol. 2014; 34(12):2644-2650).
# (§1) GYPGQV-NH2 (SEQ ID NO: 5), RALLLGWVPTR-NH2 (SEQ ID NO: 1), ALLLGWVPTR-NH2 (SEQ ID NO: 2), RALLLG-NH2 (SEQ ID NO: 4). Peptides were synthesized by BIOMATIK (Wilmington, DE, USA) at similar purities. All peptides were suspended in 50% DMSO and 50% ethanol. To measure platelet activation, washed platelets were stimulated with various concentrations of the peptide in the presence of CD41-APC, P-selectin (PE) and PAC-1 (FITC) for 15 minutes at 37° C. and then fixed with FACS Lysis Buffer. Samples were immediately run on a Cytoflex flow cytometer. In some experiments, platelets were stimulated with peptides and platelet aggregation performed as described above. Platelet calcium flux was induced by RALLLGWVPTR (2 mM; SEQ ID NO: 1), CatG (500 nM), ALLLGWVPTR (2 mM; SEQ ID NO: 2) or tyrodes buffer and monitored as described above.
# washed platelets [2] = assay: Platelet calcium flux assay; assay type: cell-based, human; conditions: CatG 500 nM
# Description: Platelet calcium flux assay. Washed platelets were incubated at 37° C. for 1 hour in Tyrode's buffer (supplemented with pgel and heparin) with Fura-2AM (final concentration 2 μM). Platelets were washed and resuspended to a final concentration of 4×10^8/mL. Platelets were dispensed into a Costar 96-well half area clear bottom plate and placed in the Flexstation 3 (Molecular Devices) where cathepsin G (500 nM), buffer, or peptides (2 mM) were injected onto cells and calcium flux monitored.
# as §1
# [3] = CatG stimulation, increasing concentrations
substance,measurement,setting,value
CatG: serine protease cathepsin G released by activated neutrophils,"CatG-induced calcium flux, WT PAR4 compared with mock transfection",WT human PAR4 (hPAR4),increased calcium flux
same,"P-selectin expression, PAR4 Thr120 homozygous platelets compared with Ala120",washed platelets [1]; [3],modest but significantly greater
same,"αIIbβ3 activation, PAR4 Thr120 homozygous platelets compared with Ala120",washed platelets [1]; [3],modest but significantly greater
same,αIIbβ3 activation (PAC-1 binding) induced by neutrophil serine protease,"washed platelets [1]; washed platelets, varying concentrations",only protease to induce
same,"peak platelet calcium flux, CatG compared with RALLLGWVPTR",washed platelets [2]; RA-11mer 2 mM,similar
same,platelet calcium flux,"washed platelets [2]; peptides 2 mM, FURA2-AM loaded washed platelets",decreased over time

# Source: patent US12077607B2, “Functional and therapeutic effects of PAR4 cleavage by cathepsin G” (UNIVERSITY OF UTAH RESEARCH FOUNDATION, priority 2021, dated 2024)
